Results as given in US20230117034A1, “PYRAZOLOTRIAZINES” (Bayer Aktiengesellschaft, priority 2019, published 2023).

Columns and labels:
[1] = test system: CAL-120, human breast adenocarcinoma cells; assay: Proliferation assay CAL-120 (crystal violet, 4 days); format: cell-based; conditions: Homo sapiens, CAL-120, 96 h, CAL-120 cells, median, read-out: Prolif-CAL-120, IC50-[mol/l] (median)
How it was run: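 Growth was measured by crystal violet staining after cells had been treated with compounds (0.01-10 µmol/L, 0.1% DMSO) for 4 days, beginning 24 h after seeding. Values were normalized to a zero-point plate and to untreated controls, and IC50 values were derived by a four-parameter fit.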

[2] = test system: BRCA1 mRNA expression in MDA-MB-231 cells; assay: qRT-PCR assay: BRCA1 mRNA expression in MDA-MB-231; format: cell-based, human; conditions: Homo sapiens, MDA-MB-231, Inhibition of BRCA1 mRNA expression in MDA-MB-231 cells; median; read-out: RTqPCR-MDA-MB-231, IC50, BRCA1 (median)
How it was run: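 First, cells are plated at 200,000 per well and allowed 24 h. Second, test substances are applied continuously for a further 24 h. Finally, RNA is isolated, 600 ng is converted to cDNA, and qPCR quantifies the transcript relative to GAPDH.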

[3] = target: T1, CYCLIN K (nuclear staining in CAL-120 cells) (Homo sapiens, UniProt O75909); assay: CYCLIN K nuclear protein level: immunofluorescence high content analysis (CAL-120); format: cell-based; conditions: 24 h, 50% reduction of nuclear CCNK staining intensity, median, read-out: CYCLIN K degradation IF, DC50-[mol/l] (median)
T1 construct: endogenous in cells; host or cells: CAL-120 human breast cancer cells (DSMZ ACC 459)
T1 sequence (O75909 whole entry): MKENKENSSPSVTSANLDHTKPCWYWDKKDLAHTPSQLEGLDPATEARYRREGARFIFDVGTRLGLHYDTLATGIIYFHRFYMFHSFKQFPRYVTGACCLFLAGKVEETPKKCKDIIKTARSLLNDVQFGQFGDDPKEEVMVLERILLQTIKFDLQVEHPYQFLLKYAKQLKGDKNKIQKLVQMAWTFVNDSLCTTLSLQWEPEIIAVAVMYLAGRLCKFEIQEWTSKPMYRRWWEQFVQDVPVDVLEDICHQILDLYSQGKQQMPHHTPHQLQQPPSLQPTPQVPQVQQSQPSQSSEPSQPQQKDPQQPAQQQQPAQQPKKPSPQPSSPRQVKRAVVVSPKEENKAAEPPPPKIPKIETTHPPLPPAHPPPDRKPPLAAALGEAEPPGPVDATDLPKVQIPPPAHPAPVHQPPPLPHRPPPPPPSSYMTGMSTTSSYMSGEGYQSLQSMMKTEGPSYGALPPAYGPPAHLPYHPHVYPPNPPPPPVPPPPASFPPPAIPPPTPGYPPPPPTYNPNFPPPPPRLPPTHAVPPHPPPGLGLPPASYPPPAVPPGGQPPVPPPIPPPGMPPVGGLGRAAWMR
T1 sequence (Q9NYV4 whole entry partner): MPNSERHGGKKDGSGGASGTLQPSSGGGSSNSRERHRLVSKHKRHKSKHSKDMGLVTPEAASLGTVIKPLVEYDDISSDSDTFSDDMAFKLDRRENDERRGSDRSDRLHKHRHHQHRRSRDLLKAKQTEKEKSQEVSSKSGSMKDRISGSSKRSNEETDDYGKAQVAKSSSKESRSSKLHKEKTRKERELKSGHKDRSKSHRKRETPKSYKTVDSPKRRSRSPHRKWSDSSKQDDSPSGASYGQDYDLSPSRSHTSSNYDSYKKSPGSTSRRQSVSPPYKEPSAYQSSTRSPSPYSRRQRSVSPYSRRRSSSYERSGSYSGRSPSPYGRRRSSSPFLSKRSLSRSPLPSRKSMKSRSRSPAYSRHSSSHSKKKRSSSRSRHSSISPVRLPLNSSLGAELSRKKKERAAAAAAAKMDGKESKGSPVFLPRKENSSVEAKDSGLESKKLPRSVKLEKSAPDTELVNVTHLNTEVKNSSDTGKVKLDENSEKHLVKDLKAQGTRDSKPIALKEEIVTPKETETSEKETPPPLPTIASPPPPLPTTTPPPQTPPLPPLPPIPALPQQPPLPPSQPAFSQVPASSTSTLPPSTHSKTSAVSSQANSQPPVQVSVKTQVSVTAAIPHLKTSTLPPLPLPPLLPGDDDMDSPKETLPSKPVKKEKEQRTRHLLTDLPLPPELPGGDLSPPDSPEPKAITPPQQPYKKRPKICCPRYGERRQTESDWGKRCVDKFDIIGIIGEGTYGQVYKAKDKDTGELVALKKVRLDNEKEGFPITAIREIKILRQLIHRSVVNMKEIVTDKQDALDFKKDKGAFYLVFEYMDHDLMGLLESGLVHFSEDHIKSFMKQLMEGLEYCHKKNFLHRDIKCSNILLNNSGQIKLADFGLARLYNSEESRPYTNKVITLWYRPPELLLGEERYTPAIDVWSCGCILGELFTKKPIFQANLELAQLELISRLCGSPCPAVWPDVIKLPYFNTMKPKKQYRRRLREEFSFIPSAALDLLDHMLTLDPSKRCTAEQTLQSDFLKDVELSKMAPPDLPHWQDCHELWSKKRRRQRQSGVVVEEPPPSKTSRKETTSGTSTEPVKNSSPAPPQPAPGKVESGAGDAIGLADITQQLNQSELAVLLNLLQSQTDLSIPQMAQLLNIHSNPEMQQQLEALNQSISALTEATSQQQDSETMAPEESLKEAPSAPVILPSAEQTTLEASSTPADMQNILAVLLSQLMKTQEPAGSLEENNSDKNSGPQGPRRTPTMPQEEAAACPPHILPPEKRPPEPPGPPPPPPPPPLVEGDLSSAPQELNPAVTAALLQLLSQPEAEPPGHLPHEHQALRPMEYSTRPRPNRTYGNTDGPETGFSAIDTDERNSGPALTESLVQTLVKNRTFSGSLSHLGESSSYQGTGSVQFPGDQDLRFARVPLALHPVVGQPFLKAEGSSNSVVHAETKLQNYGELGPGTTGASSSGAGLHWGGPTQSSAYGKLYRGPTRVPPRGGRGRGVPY
Description: 8. CYCLIN K nuclear protein level: immunofluorescence High Content Analysis
CAL-120 human breast cancer cells (DSMZ ACC 459) are seeded in 1536-well microtiter plates (800 cells per well) containing 50 nanoL of compounds in Dose-Response. Control wells received DMSO or Example 4. Plates are then incubated for 24 h at 37° C. in an humidified incubator and fixed with 4% PFA for 10 min. Then immunofluorescence (IF) against CYCLIN K (ThermoFisher Scientific CONK Antibody #PA5-85020, rabbit, 1:200 dilution) is performed using standard IF protocols. Cells are then stained with Hoechst 33342 (Life Technologies, H-1399, 0.1 microg/ml) and imaged on an automated confocal microscopy system (e.g. Perkin Elmer Opera Phenix). Nuclear and cytoplasmic intensity as well as the nuclear/cytoplasmic intensity ratio is determined by automated image analysis using custom generated scripts (MetaXpress). Data is then transferred to Genedata Screener software, normalized to DMSO and control and DC50 values (degrading concentration to achieve 50% reduction of nuclear CCNK staining intensity relative to controls) are reported.

[4] = test system: MDA-MB-231, human breast cancer cells; assay: Proliferation assay MDA-MB-231 (crystal violet, 4 days); format: cell-based; conditions: Homo sapiens, MDA-MB-231, 96 h, MDA-MB-231 cells, median, read-out: Prolif-MDA MB-231, IC50-[mol/l] (median)
Description: Human tumour cells were originally obtained from the American Type Culture Collection (ATCC), or from the Deutsche Sammlung von Mikroorganismen und Zellkulturen (DSMZ, German Collection of Microorganisms and Cell Cultures). Cultivated tumour cells (CAL-120, human breast adenocarcinoma cells, DSMZ ACC-459; MDA-MB-231, human breast cancer cells, ATCC HTB-26) were plated at a density of 4,000 cells/well in a 96-well multititer plate in 200 microL of their respective growth medium supplemented 10% fetal calf serum. After 24 hours, the cells of one plate (zero-point plate) were stained with crystal violet (see below), while the medium of the other plates was supplemented with the test substances in various concentrations (0 micromol/L, as well as in the range of 0.01-10 micromol/L; the final concentration of the solvent dimethyl sulfoxide was adjusted to 0.1%) using a Tecan HP D300 Digital Dispenser. The cells were incubated for 4 days in the presence of test substances. Cell proliferation was determined by staining the cells with crystal violet: the cells were fixed by adding 20 microL/measuring point of an 11% glutaric aldehyde solution for 15 minutes at room temperature. After three washing cycles of the fixed cells with water, the plates were dried at room temperature. The cells were stained by adding 100 microL/measuring point of a 0.1% crystal violet solution (pH 3.0). After three washing cycles of the stained cells with water, the plates were dried at room temperature. The dye was dissolved by adding 100 microL/measuring point of a 10% acetic acid solution. The extinction was determined by photometry at a wavelength of 595 nm. The change of cell number, in percent, was calculated by normalization of the measured values to the extinction values of the zero-point plate (=0%) and the extinction of the untreated (0 μM) cells (=100%). The IC50 values (inhibitory concentration at 50% of maximal effect) were determined by means of a 4 parameter fit.

SMILES | IC50 [1] [nM] | IC50 [2] [nM] | DC50 [3] [nM] | IC50 [4] [nM]
CCN1CCN(c2nc(NCc3nc4ccccc4[nH]3)n3ncc(Br)c3n2)CC1 [Example 137, N-[(1H-benzimidazol-2-yl)methyl]-8-bromo-2-(4-ethylpiperazin-1-yl)pyrazolo[1,5-a][1,3,5]triazin-4-amine] | 110 | 205 | 4.68 | 192
C[C@@H]1CN(c2nc(NCc3nc4ccccc4[nH]3)n3ncc(Br)c3n2)C[C@H](C)N1 [Example 142, N-(1H-benzimidazol-2-ylmethyl)-8-bromo-2-[(3R,5S)-3,5-dimethylpiperazin-1-yl]pyrazolo[1,5-a][1,3,5]triazin-4-amine] | 11.3 | 19.1 | 0.163 | 23.7
C[C@@H]1CN(c2nc(NCc3nc4ccccc4[nH]3)n3ncc(Br)c3n2)C[C@H](C)N1C [Example 129, N-(1H-benzimidazol-2-ylmethyl)-8-bromo-2-[(3R,5S)-3,4,5-trimethylpiperazin-1-yl]pyrazolo[1,5-a][1,3,5]triazin-4-amine] | 125 | 174 | 3.39 | 132
Brc1cnn2c(NCc3nc4ccccc4[nH]3)nc(N3C[C@@H]4CCCN[C@@H]4C3)nc12 [Example 146, N-[(1H-benzimidazol-2-yl)methyl]-8-bromo-2-[(4aS,7aS)-octahydro-6H-pyrrolo[3,4-b]pyridin-6-yl]pyrazolo[1,5-a][1,3,5]triazin-4-amine] | 31 | 16.1 | 0.56 | 43.3
COc1ccc2[nH]c(CNc3nc(N4CCN(C)CC4)nc4c(Br)cnn34)nc2c1 [Example 161, 8-bromo-N-[(5-methoxy-1H-benzimidazol-2-yl)methyl]-2-(4-methylpiperazin-1-yl)pyrazolo[1,5-a][1,3,5]triazin-4-amine] | 3.3 | 2.53 | 1.3 | 11.3
Brc1cnn2c(NCc3nc4ccccc4[nH]3)nc(N3CCNCC3)nc12 [Example 128, N-[(1H-benzimidazol-2-yl)methyl]-8-bromo-2-(piperazin-1-yl)pyrazolo[1,5-a][1,3,5]triazin-4-amine] | 12.7 | 14.6 | 0.216 | 16
Cc1ccc2[nH]c(CNc3nc(N4CCOCC4)nc4c(Br)cnn34)nc2c1 [Example 157, 8-bromo-N-[(5-methyl-1H-benzimidazol-2-yl)methyl]-2-(morpholin-4-yl)pyrazolo[1,5-a][1,3,5]triazin-4-amine] | 1.78 | 0.903 | 0.119 | 4.79
Cc1ccc2[nH]c(CNc3nc(N4CCN(C)CC4)nc4c(Br)cnn34)nc2c1 [Example 158, 8-bromo-N-[(5-methyl-1H-benzimidazol-2-yl)methyl]-2-(4-methylpiperazin-1-yl)pyrazolo[1,5-a][1,3,5]triazin-4-amine] | 1.17 | 0.883 | 0.367 | 4.24
C[C@@H]1CN(c2nc(NCc3nc4ccccc4[nH]3)n3ncc(Br)c3n2)CCN1C [Example 135, N-[(1H-benzimidazol-2-yl)methyl]-8-bromo-2-[(3R)-3,4-dimethylpiperazin-1-yl]pyrazolo[1,5-a][1,3,5]triazin-4-amine] | 41.7 | 30 | 0.554 | 44
COc1ccc2[nH]c(CNc3nc(N4CCOCC4)nc4c(Br)cnn34)nc2c1 [Example 160, 8-bromo-N-[(5-methoxy-1H-benzimidazol-2-yl)methyl]-2-(morpholin-4-yl)pyrazolo[1,5-a][1,3,5]triazin-4-amine] | 6.5 | 2.95 | 0.743 | 9.22
CN1CCN(c2nc(NCc3nc4cc(F)ccc4[nH]3)n3ncc(Br)c3n2)CC1 [Example 134, 8-bromo-N-[(5-fluoro-1H-benzimidazol-2-yl)methyl]-2-(4-methylpiperazin-1-yl)pyrazolo[1,5-a][1,3,5]triazin-4-amine] | 11.6 | 5.5 | 0.172 | 11.7
Cc1cccc2[nH]c(CNc3nc(N4CCOCC4)nc4c(Br)cnn34)nc12 [Example 150, 8-bromo-N-[(4-methyl-1H-benzimidazol-2-yl)methyl]-2-(morpholin-4-yl)pyrazolo[1,5-a][1,3,5]triazin-4-amine] | 18.3 | 13 | 1.48 | 38.9
CN1CCN(c2nc(NCc3nc4c(F)c(F)ccc4[nH]3)n3ncc(Br)c3n2)CC1 [Example 133, 8-bromo-N-[(4,5-difluoro-1H-benzimidazol-2-yl)methyl]-2-(4-methylpiperazin-1-yl)pyrazolo[1,5-a][1,3,5]triazin-4-amine] | 4.41 | 4.23 | 0.0633 | 4.94
CN1CCN(c2nc(NCc3nc4cc(Cl)ccc4[nH]3)n3ncc(Br)c3n2)CC1 [Example 163, 8-bromo-N-[(5-chloro-1H-benzimidazol-2-yl)methyl]-2-(4-methylpiperazin-1-yl)pyrazolo[1,5-a][1,3,5]triazin-4-amine] | 1.05 | 1.03 | 0.279 | 3.96
C[C@@H]1CN(c2nc(NCc3nnc(-c4ccccc4)[nH]3)n3ncc(Br)c3n2)C[C@H](C)N1 [Example 127, 8-bromo-2-[(3R,5S)-3,5-dimethylpiperazin-1-yl]-N-[(5-phenyl-4H-1,2,4-triazol-3-yl)methyl]pyrazolo[1,5-a][1,3,5]triazin-4-amine] | 28.2 | 16.2 | 2.77 | 32.5
C[C@@H]1CN(c2nc(NCc3nnc(-c4ccccc4)[nH]3)n3ncc(Br)c3n2)CCN1C.O=CO [Example 130, 8-bromo-2-[(3R)-3,4-dimethylpiperazin-1-yl]-N-[(5-phenyl-4H-1,2,4-triazol-3-yl)methyl]pyrazolo[1,5-a][1,3,5]triazin-4-amine formate] | 34.8 | 37.6 | 2.01 | 35.6
CN1CCN(c2nc(NCc3nc4c(F)c(F)ccc4[nH]3)n3ncc(C4CC4)c3n2)CC1 [Example 159, 8-cyclopropyl-N-[(4,5-difluoro-1H-benzimidazol-2-yl)methyl]-2-(4-methylpiperazin-1-yl)pyrazolo[1,5-a][1,3,5]triazin-4-amine] | 1.73 | 1.68 | 0.0663 | 9.25
CN1CCN(c2nc(NCc3nc4c(F)cccc4[nH]3)n3ncc(C4CC4)c3n2)CC1 [Example 165, 8-cyclopropyl-N-[(4-fluoro-1H-benzimidazol-2-yl)methyl]-2-(4-methylpiperazin-1-yl)pyrazolo[1,5-a][1,3,5]triazin-4-amine] | 4.16 | 2.35 | 0.155 | 95
C[C@H]1CN(c2nc(NCc3nc4ccccc4[nH]3)n3ncc(Br)c3n2)CCN1C [Example 132, N-[(1H-benzimidazol-2-yl)methyl]-8-bromo-2-[(3S)-3,4-dimethylpiperazin-1-yl]pyrazolo[1,5-a][1,3,5]triazin-4-amine] | 43.4 | 29.5 | 2.22 | 43
